Among the data in patent publication US7803801B2, “Aminopyridine compounds having Syk inhibitory activity” (Japan Tobacco, Inc., priority 2005, dated 2010) are IC50 values, retold here.

Experiment [1] has as its target GST-Syk Full Protein (human) (Homo sapiens, UniProt P43405). The experiment can be described thus: Syk kinase inhibition test (HTRF method). The format is biochemical. The procedure, abridged:
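HTRF read-out: after EDTA termination and 1 h with XL665-streptavidin and Eu-anti-phosphotyrosine, the 665/620 nm ratio was measured. The reaction ran 30 min at 20–25 °C with final 6.4 nM human GST-Syk, 250 nM biotinylated peptide, 100 μM ATP, pH 7.0 HEPES buffer, 2% DMSO.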
(TR-FRET usually uses a lanthanide donor and a delayed reading to cut background.)

Experiment [2] relates to cultured human mast cells. Description: Degranulation inhibition test using cultured human mast cells (IgE cross-linking, β-Hexosaminidase release). It is filed as cell-based. As to conditions: Mast cell, cultured human mast cells, read-out: human degranulation ave. IC50. As for the experimental part: Degranulation Inhibition Test Using Cultured Human Mast Cells
(1) Separation of Hematopoietic Stem Cells;
After 10 to 60 mL of umbilical cord blood collected with heparin was diluted with an equivalent amount of buffer (0.5% BSA, 2 mM EDTA/PBS-), it was superposed on Ficoll-Paque (Amersham Pharmacia Biotech) (Ficoll/Blood (1:2)) and mononuclear leukocyte fraction was collected by centrifuging it at 400 G (1350 rpm) 4° C. for 30 minutes. After centrifugal washing (1500 rpm, 5 min, 4° C.×3) with buffer, the number of cells was counted and 0.1 mL of CD34 Progenitor Cell Isolation Kit (Miltenyi Biotec), Reagent A1 (Fc blocking) was added for 1×10^8 cells. After agitation, 0.1 mL of Reagent A2 (CD34 antibody-hapten) was added (final volume 0.5 mL/1×10^8 cells) and incubated at 9° C. for further 15 minutes after agitation. After centrifugal washing (1500 rpm, 5 min, 4° C.×3), it was resuspeded in a buffer (0.4 mL) and 0.1 mL of Reagent B (anti hapten antibody-microbeads) was added and agitated (final volume 0.5 mL/1×10^8 cells) and incubated at 9° C. for further 15 minutes. After centrifugal washing (1500 rpm, 5 min, 4° C.×2), it was resuspeded in a buffer (0.5 mL) and loaded on CS column (Miltenyi Biotec) set in MACS (MAgnetic Cell Sorting system; Miltenyi Biotec, Daiichi Pure Chemicals) and washed with 30 mL of buffer to remove CD34^− cells. The column was separated from MACS and eluted with 30 mL of buffer and CD34^+ cells bound to the column were collected and used as a hematopoietic stem cell population.
(2) Acquisition of Human Mast Cells by Long-Term Culturing of Hematopoietic Stem Cells;
The CD34^+ cells separated in (1) were resuspended in Iscove's Modified Dulbecco's Medium (IMDM, Gibco) containing human (rh)SCF (1 μg/mL, Peprotech), rhIL-6 (0.5 μg/mL, Peprotech), rhIL-3 (10 ng/mL, Peprotech), 1% Insulin-Transferrin (Gibco), 5×10^−5M 2-ME (Gibco), 0.1% BSA (Sigma) in a density of 1×10^6 cells/ml and disseminated on 24-well culture plate with a dose of 0.1 mL/well and 0.9 ml of IMDM (Methocult SF^BIT StemCell technology) containing 0.9% methyl cellulose was added and culturing was started. The above culture medium (excluding methyl cellulose) was added in a week and after that 100 μL/well of the above culture medium (further excluding IL-3) was added at an interval of every once a week so that cells were diluted to maintain 10^5 cells/mL/well order and cultured more than about 8 weeks and thereby human culture mast cells were obtained.
(3) Expression Enhancement of FcεRI and Inhibition Test IgE Cross-Linking Stimulating Degranulation;
rhIL-4 (final concentration 1 ng/mL, R & D) and Homo sapiens(h) IgE (final concentration 0.5 μg/mL, CHEMICON) were added to the obtained human culture mast cells, and they were incubated for 5 days to enhance the expression of FcεRI. After incubation, cells were collected and, after centrifugal washing (IMDM), they were disseminated on 96-well culture plate in 5×10^4 cells/80 μL/well.
10 μL of a compound 10-fold diluted with IMDM after dissolved in DMSO (DMSO final concentration 0.1%) was added and reacted at 37° C. for 10 minutes. Further, 10 μL of anti-hIgE Ab (CHEMICON) adjusted to 100 μg/mL (final concentration 10 μg/mL) was added and degranulation was caused by being stimulated at 37° C. for 30 minutes. After centrifugation, 50 μL/well of the supernatant was collected and stored at −40° C. untill the quantity of degranulation was measured. The measurement of quantity of degranulation was performed using enzymatic activity of β-Hexosaminidase contained in the granulates as an index. That is, an equivalent amount of p-nitrophenyl-N-acetyl-β-D-glucosaminide (1 mM) (containing 0.1% Triton X-100) which is a substrate of β-Hexosaminidase was added to 50 μL of the culture filtrate, and after reacted at 37° C. for 2 hours, the reaction was terminated by using 100 μL of Carbonate buffer (0.1M, pH 10). […]

The mark [3] stands for this setting: Tables 1-x, compounds A, read-out: sykHTRF ave IC50.
Where [4] appears, read: HTRF, 100 μM ATP, 30 min room temperature, average, read-out: sykHTRF ave IC50.
Where [5] appears, read: anti-hIgE stimulation, β-Hexosaminidase index, average.
Where [6] appears, read: Tables 2-x, thiophene compounds B, read-out: sykHTRK ave IC50.
Where [7] appears, read: Tables 2-x, thiophene compounds B.

Where a name gives a salt, the structure may show the parent alone. Read-outs that look alike come from different tables or passages of the source. Bounds are passed on as bounds.

A word on the IC50: it is the point on the concentration scale where inhibition reaches its midpoint. Regarding `CN[C@@H](Cc1ccc(O)cc1)c1ncc(-c2cccc(Nc3cc(C)ccn3)n2)s1` [Compound A-384], the half-inhibitory concentration (IC50) in experiment [1] (setting [3]) was in the range of 100 to 1000 nM; in experiment [2] (Tables 1-x, compounds A), 100 to 1000 nM.
Regarding `Cc1ccnc(Nc2cccc(-c3cnc([C@@H](O)C(C)C)s3)n2)c1` [Compound A-82, (S)-2-methyl-1-{5-[6-(4-methylpyridin-2-ylamino)pyridin-2-yl]thiazol-2-yl}propan-1-ol], the results for the IC50 in experiment [1] (setting [4]) and in experiment [2] (setting [5]) were below 100 nM and 100 to 1000 nM, respectively.
For `Cc1ccnc(Nc2cccc(-c3cnc(C4CCN(CC(=O)O)CC4)s3)n2)c1` [Compound A-185], in that order: 100 to 1000 nM and above 1000 nM.
For the molecule `Cc1ccnc(Nc2cccc(-c3ccc(/C(N)=N/O)s3)n2)c1` [Compound B-60, N-hydroxy-5-[6-(4-methylpyridin-2-ylamino)pyridin-2-yl]thiophene-2-carboxyamidine], the values for the IC50 in experiment [1] (setting [6]) and in experiment [2] (setting [7]) were below 100 nM and 100 to 1000 nM, respectively.
Regarding `Cc1ccnc(Nc2cccc(-c3cnc(C(O)Cc4ccc(O)cc4)s3)n2)c1` (stereo not drawn) [Compound A-362, 4-(2-hydroxy-2-{5-[6-(4-methylpyridin-2-ylamino)pyridin-2-yl]thiazol-2-yl}ethyl)phenol], the IC50 was below 100 nM in experiment [1] (setting [4]) and 100 to 1000 nM in experiment [2] (setting [5]).
Consider `Cc1ccnc(Nc2cccc(-c3cnc([C@@H](N)Cc4ccccc4)s3)n2)c1` [Compound A-40], for which the values for the IC50 in experiment [1] (setting [4]) and in experiment [2] (setting [5]) were 100 to 1000 nM and above 1000 nM, respectively.
For the molecule `Cc1ccnc(Nc2cccc(-c3cnc(CCC4CCC(O)CC4)s3)n2)c1` (stereo not drawn) [Compound A-173, 4-(2-{5-[6-(4-methylpyridin-2-ylamino)pyridin-2-yl]thiazol-2-yl}ethyl)cyclohexanol], the IC50 in experiment [1] (setting [4]) was below 100 nM; in experiment [2] (setting [5]), 100 to 1000 nM.
Take `Cc1ccnc(Nc2cccc(-c3cnc(CN4CCN(C)CC4)s3)n2)c1` [Compound A-209]: the concentration for half-maximal inhibition (IC50) in experiment [1] (setting [4]) was 100 to 1000 nM; in experiment [2] (setting [5]), above 1000 nM.
Turning to `CC(=O)N[C@H]1CN(C(=O)COCc2ncc(-c3cccc(Nc4cc(C)ccn4)n3)s2)C[C@@H]1O` [Compound A-411], the IC50 in experiment [1] (setting [3]) was above 1000 nM; in experiment [2] (Tables 1-x, compounds A), above 1000 nM.
Turning to `CC(=O)NC(C)c1ccc(-c2cccc(Nc3cc(C)ccn3)n2)s1` (stereo not drawn) [Compound B-93], the concentration for half-maximal inhibition (IC50) in experiment [1] (setting [6]) and in experiment [2] (setting [7]) was 100 to 1000 nM in each case.
Consider `Cc1ccnc(Nc2cccc(-c3cnc(CN4CCOCC4)s3)n2)c1` [Compound A-193], for which the half-maximal inhibitory concentration (IC50) in experiment [1] (setting [4]) and in experiment [2] (setting [5]) was 100 to 1000 nM in each case.
Take `Cc1ccnc(Nc2cccc(-c3cnc([C@H]4CC[C@H](C(=O)N5CCC(O)CC5)CC4)s3)n2)c1` [Compound A-8, (4-hydroxypiperidin-1-yl)-(trans-4-{5-[6-(4-methylpyridin-2-ylamino)pyridin-2-yl]thiazol-2-yl}cyclohexyl)methanone]: the concentration for half-maximal inhibition (IC50) in experiment [1] (setting [4]) and in experiment [2] (setting [5]) was 100 to 1000 nM each time.
Regarding `CC(=O)N[C@@H](C)c1nc(CO)c(-c2cccc(Nc3cc(C)ccn3)n2)s1` [Compound A-108], the 50% inhibitory concentration (IC50) in experiment [1] (setting [4]) and in experiment [2] (setting [5]) was above 1000 nM in each case.
As for `Cc1ccnc(Nc2cccc(-c3cnc(N(C)[C@H]4CC[C@H](C(=O)O)CC4)s3)n2)c1` [Compound A-592, trans-4-(N-methyl-N-{5-[6-(4-methylpyridin-2-ylamino)pyridin-2-yl]thiazol-2-yl}amino)cyclohexanecarboxylic acid], the IC50 was below 100 nM in experiment [1] (setting [3]) and 100 to 1000 nM in experiment [2] (Tables 1-x, compounds A).
For the molecule `CC(=O)N(C)[C@@H](C)c1ncc(-c2cccc(Nc3cc(C)ccn3)n2)s1` [Compound A-52, N-methyl-((S)-1-{5-[6-(4-methylpyridin-2-ylamino)pyridin-2-yl]thiazol-2-yl}ethyl)acetamide], the IC50 in experiment [1] (setting [4]) was below 100 nM; in experiment [2] (setting [5]) it was 100 to 1000 nM.
Regarding `CC(=O)c1ccc(-c2cccc(Nc3cc(C4=NC(C)(C)CO4)ccn3)n2)s1` [Compound B-87, 1-(5-{6-[4-(4,4-dimethyl-4,5-dihydrooxazol-2-yl)pyridin-2-ylamino]pyridin-2-yl}thiophen-2-yl)ethanone], the concentration for half-maximal inhibition (IC50) in experiment [1] (setting [6]) was below 100 nM; in experiment [2] (setting [7]), 100 to 1000 nM.
In the case of `Cc1ccnc(Nc2cccc(-c3cnc(CN4C(=O)CCCC4=O)s3)n2)c1` [Compound A-350], the half-inhibitory concentration (IC50) in experiment [1] (setting [4]) and in experiment [2] (setting [5]) was 100 to 1000 nM each time.
Consider `Cc1ccnc(Nc2cccc(-c3cnc(CNC[C@H]4CC[C@H](C(=O)O)CC4)s3)n2)c1` [Compound A-207], for which the IC50 in experiment [1] (setting [4]) is 100 to 1000 nM; in experiment [2] (setting [5]), above 1000 nM.
The corresponding values for `Cc1ccnc(Nc2cccc(-c3cnc(N4CCC(C(=O)NCCO)CC4)s3)n2)c1` [Compound A-5, N-(2-hydroxyethyl)-1-{5-[6-(4-methylpyridin-2-ylamino)pyridin-2-yl]thiazol-2-yl}piperidine-4-carboxamide] are below 100 nM and 100 to 1000 nM.
In the case of `Cc1ccnc(Nc2cccc(-c3cnc(CCc4ccc(C(=O)N5C[C@@H](O)[C@@H](O)C5)cc4)s3)n2)c1` [Compound A-223, ((3R,4S)-3,4-dihydroxypyrrolidin-1-yl)-[4-(2-{5-[6-(4-methylpyridin-2-ylamino)pyridin-2-yl]thiazol-2-yl}ethyl)phenyl]methanone], the concentration for half-maximal inhibition (IC50) in experiment [1] (setting [4]) was below 100 nM; in experiment [2] (setting [5]), 100 to 1000 nM.
Take `O=C(O)CC1CCN(c2ncc(-c3cccc(Nc4cc(Cl)ccn4)n3)s2)CC1` [Compound A-620, (1-{5-[6-(4-chloropyridin-2-ylamino)pyridin-2-yl]thiazol-2-yl}piperidin-4-yl)acetic acid dihydrochloride]: the IC50 in experiment [1] (setting [3]) is below 100 nM; in experiment [2] (Tables 1-x, compounds A), 100 to 1000 nM.
`CC(=O)N[C@@H](C)c1nc(C(C)=O)c(-c2cccc(Nc3cc(C)ccn3)n2)s1` [Compound A-126]: the half-maximal inhibitory concentration (IC50) in experiment [1] (setting [4]) and in experiment [2] (setting [5]) was above 1000 nM each time.
As to `Cc1ccnc(Nc2cccc(-c3cnc([C@H]4CC[C@H](C(=O)N5CCCCC5)CC4)s3)n2)c1` [Compound A-274], the values for the half-maximal inhibitory concentration (IC50) in experiment [1] (setting [4]) and in experiment [2] (setting [5]) were 100 to 1000 nM and above 1000 nM, respectively.
On to `Cc1ccnc(Nc2cccc(-c3ccc(C(=O)C(C)C)s3)n2)c1` [Compound B-49], for which the half-maximal inhibitory concentration (IC50) in experiment [1] (setting [6]) was 100 to 1000 nM; in experiment [2] (setting [7]), above 1000 nM.
On to `Cc1ccnc(Nc2cccc(-c3cnc([C@@H]4COC(C)(C)N4C(=O)OC(C)(C)C)s3)n2)c1` [Compound A-12, (S)-2,2-dimethyl-4-{5-[6-(4-methylpyridin-2-ylamino)pyridin-2-yl]thiazol-2-yl}oxazolidine-3-carboxylic acid tert-butyl ester], for which the concentration for half-maximal inhibition (IC50) in experiment [1] (setting [4]) and in experiment [2] (setting [5]) was above 1000 nM throughout.
As for `COc1ccnc(Nc2cccc(-c3cnc(N4CCC[C@H]4C(N)=O)s3)n2)c1` [Compound A-541, (S)-1-{5-[6-(4-methoxypyridin-2-ylamino)pyridin-2-yl]thiazol-2-yl}pyrrolidine-2-carboxamide], the half-maximal inhibitory concentration (IC50) is below 100 nM in experiment [1] (setting [3]) and 100 to 1000 nM in experiment [2] (Tables 1-x, compounds A).
As to `Cc1ccnc(Nc2cccc(-c3cnc(CC4CCC(C(=O)O)CC4)s3)n2)c1` (stereo not drawn) [Compound A-249], the half-maximal inhibitory concentration (IC50) in experiment [1] (setting [4]) and in experiment [2] (setting [5]) was 100 to 1000 nM in each case.
